From ChEMBL document CHEMBL1671755, “Prevalence, mutation patterns, and effects on protease inhibitor susceptibility of the L76V mutation in HIV-1 protease” (2010)

How the values were obtained:
Type in all cases: functional
[1] = system: Human immunodeficiency virus 1; assay: Antiviral activity against Human immunodeficiency virus 1 harboring protease inhibitor resistance-associated mutations assessed as fold change in drug susceptibility relative to wild type
[2] = system: Human immunodeficiency virus 1; assay: Antiviral activity against Human immunodeficiency virus 1 harboring protease inhibitor resistance-associated mutations and protease L76V mutation in viral protease assessed as fold change in drug susceptibility relative to wild type
[3] = system: Human immunodeficiency virus 1; assay: Antiviral activity against Human immunodeficiency virus 1 harboring M46I, M46L, I54V, and V82A mutations in viral protease assessed as fold change in drug susceptibility relative to wild type
[4] = system: Human immunodeficiency virus 1; assay: Antiviral activity against Human immunodeficiency virus 1 harboring M46I, M46L, I54V, V82A and L76V mutations in viral protease assessed as fold change in drug susceptibility relative to wild type
[5] = system: Human immunodeficiency virus 1; assay: Antiviral activity against Human immunodeficiency virus 1 harboring M46I mutation in viral protease assessed as fold change in drug susceptibility relative to wild type
[6] = system: Human immunodeficiency virus 1; assay: Antiviral activity against Human immunodeficiency virus 1 harboring M46I and L76V mutations in viral protease assessed as fold change in drug susceptibility relative to wild type

SMILES	fold change (FC) [1]	fold change (FC) [2]	fold change (FC) [3]	fold change (FC) [4]	fold change (FC) [5]	fold change (FC) [6]
CC(C)CN(C[C@@H](O)[C@H](Cc1ccccc1)NC(=O)O[C@H]1CCOC1)S(=O)(=O)c1ccc(N)cc1 [AMPRENAVIR]	21.1	70.9	3.7	19.3	1.5	6.7
COC(=O)N[C@H](C(=O)N[C@@H](Cc1ccccc1)[C@@H](O)CN(Cc1ccc(-c2ccccn2)cc1)NC(=O)[C@@H](NC(=O)OC)C(C)(C)C)C(C)(C)C [ATAZANAVIR]	75.2	11.3	5.7	2.1	4.3	0.9
CC(C)CN(C[C@@H](O)[C@H](Cc1ccccc1)NC(=O)O[C@H]1CO[C@H]2OCC[C@H]21)S(=O)(=O)c1ccc(N)cc1 [DARUNAVIR]	8.5	37.4	1.1	4.2	0.9	2.8
CC(C)(C)NC(=O)[C@@H]1CN(Cc2cccnc2)CCN1C[C@@H](O)C[C@@H](Cc1ccccc1)C(=O)N[C@H]1c2ccccc2C[C@H]1O.O [INDINAVIR]	40.1	60.1	9.7	37.4	3.4	8.6
Cc1cccc(C)c1OCC(=O)N[C@@H](Cc1ccccc1)[C@@H](O)C[C@H](Cc1ccccc1)NC(=O)[C@H](C(C)C)N1CCCNC1=O [LOPINAVIR]	46.1	174.2	28	163.1	1.6	9.9
Cc1c(O)cccc1C(=O)N[C@@H](CSc1ccccc1)[C@H](O)CN1C[C@H]2CCCC[C@H]2C[C@H]1C(=O)NC(C)(C)C [NELFINAVIR]	78.3	36.1	13.9	14.8	7.9	2.5
CC(C)c1nc(CN(C)C(=O)N[C@H](C(=O)N[C@@H](Cc2ccccc2)C[C@H](O)[C@H](Cc2ccccc2)NC(=O)OCc2cncs2)C(C)C)cs1 [RITONAVIR]	129.7	113.2	37.6	63.6	2.2	2.7
CC(C)(C)NC(=O)[C@@H]1C[C@@H]2CCCC[C@@H]2CN1C[C@@H](O)[C@H](Cc1ccccc1)NC(=O)[C@H](CC(N)=O)NC(=O)c1ccc2ccccc2n1 [SAQUINAVIR]	197.4	43.5	2.8	3.2	1.2	0.7
CCC[C@@]1(CCc2ccccc2)CC(O)=C([C@H](CC)c2cccc(NS(=O)(=O)c3ccc(C(F)(F)F)cn3)c2)C(=O)O1 [TIPRANAVIR]	6.7	3.6	1.7	1.2	1.2	0.8
